# Experimental data taken from article PMC8826726, “Selective Toxicity of Secondary Metabolites from the Entomopathogenic Bacterium Photorhabdus luminescens sonorensis against Selected Plant Parasitic Nematodes of the Tylenchina Suborder” (Microbiology Spectrum, 2022).
# Where two headings read alike, the source gives them in different places.
# Assays:
# [1] = system: Meloidogyne incognita J2 juveniles; assay: microbe, parasite or virus in culture; conditions: Meloidogyne incognita, 24 h
# Excerpt: (§1) Only soil inhabiting (free-living or infective) stages of target and non-target nematode species were considered in the present study. All nematode cultures (except T. semipenetrans) were maintained in the Stock laboratory (University of Arizona). M. incognita was reared in planta using susceptible tomato plants (cv. Roma VF; seedlings with five or six true leaves; courtesy of Dr. J. Brown, University of Arizona). Eggs of M. incognita were extracted from infected tomato plant roots, and J2 were collected after hatching, following the procedures of Atamian et al. ([50]). T. semipenetrans was isolated from infested lemon orchards at the Yuma Agricultural Center, University of Arizona (Yuma, AZ, USA). Eggs of T. semipenetrans were extracted from infected lemon tree roots using the procedures of El-Borai et al. ([51]), and J2 were collected using the same procedure as that described for M. incognita.
# (§2) Twelve-well tissue culture plates were used as the experimental arena. For each of the tested nematode species, an inoculum of 100 nematodes, suspended in 20 μL distilled water, was added to each well. […] For PPA (Enamine) and indole (Alfa Aesar), 13 incremental concentrations were tested ranging from 10 to 400 μg/mL in 1 mL of distilled water (DMSO ≤ 1%; vol/vol). […] Distilled water with 1% DMSO was used as the negative control. To measure the combined nematicidal effects of the three SMs, equal concentrations of two or three SMs were mixed in 1:1 or 1:1:1 mixture. For example, a 20 μg/mL solution of a two-SM mixture contained 20 μg from metabolite A and 20 μg metabolite B, dissolved in 1 mL distilled water. Individual or combined SMs from 10 μg/mL to 200 μg/mL (in 20 μg/ml increments) were prepared in distilled water (DMSO ≤ 1%; vol/vol) and used for the bioassays.
# (§3) The well plates were covered with their lids and incubated at 25°C in the dark. For the targeted nematode species, nematicidal activity was recorded at 24 h, 48 h, and 72 h after initial exposure to the individual SMs. For the non-target species, data were only recorded at 24 h after initial exposure to the individual SMs. For SM mixtures, mortality was recorded 24 h after initial exposure of the targeted nematode species. Nematodes were probed with a needle to assess if they were alive, dead, or paralyzed. […] Those nematodes that resumed activity upon probing were considered to suffer from temporary paralysis (impaired motility). Paralyzed nematodes were rinsed at least three times in distilled water and held for an additional 24 h to check for their recovery from temporarily paralysis. […] Experiments were repeated at least three times per treatment for each concentration tested.
# (§4) For the toxicity data visualization, the relationship between percent mortality or temporary paralysis and metabolite concentration were described by a sigmoidal curve, which was fitted by the logistical function using the statistical software package SigmaPlot for Windows, version 14.0 (Systat Software Inc.). […] Concentration-response data of single metabolites or SM mixtures were pooled for each concentration and subjected to probit regression analysis using the Polo Plus program (LeOra Software). The LC or EC values, along with the corresponding 95% confidence intervals, were estimated for each single SM or SM mixture at each exposure time, depending on the experimental setting.
# [2] = system: Tylenchulus semipenetrans J2 juveniles; assay: microbe, parasite or virus in culture; conditions: Tylenchulus semipenetrans, 24 h
# Excerpt: as §1, §2, §3, §4
# C. elegans [3] = assay: in vitro; conditions: data not shown
# Excerpt: (§5) The non-target species, C. elegans wild-type strain N2 Bristol (courtesy of Dr. G.L. Sutphin, University of Arizona) and Rhabditis blumi DF5010 (Caenorhabditis Genetics Center, University of MN, USA) were maintained in vitro in nematode growth medium (NGM) agar plates seeded with Escherichia coli (Migula) Castellani and Chalmers, strain OP-50, as described previously ([52]). Mixed juveniles and hermaphrodites (5 to 6 days old) were collected from the culture plates prior to the bioassays. Infective third-stage juveniles (IJs) of three non-target entomopathogenic nematode species (H. sonorensis Caborca strain, H. bacteriophora TT01 strain, and Steinernema carpocapsae All strain) were also maintained by rearing them in vivo using wax moth larvae (Galleria mellonella) as the host, according to procedures described previously ([53]), and collected for bioassays within 2 to 4 days of their emergence from nematode-infected cadavers. Nematode population density (number of nematodes per ml) was standardized prior to setting up well-plate bioassays, by adjusting each nematode suspension to a concentration of 100 nematodes in 20 μL of distilled water.
# as §2, §3, §4
# R. blumi = assay: in vitro; conditions: data not shown
# Excerpt: as §5, §2, §3, §4
# [4] = system: Tylenchulus semipenetrans J2 juveniles; assay: In vitro nematistatic assay (temporary paralysis); assay type: cell-based; conditions: for EC50 / EC90 / EC10 / EC25: temporary paralysis
# C. elegans [5] = assay: In vitro nematistatic assay (temporary paralysis), non-target species; assay type: cell-based; conditions: Caenorhabditis elegans; reversible paralysis, 24 h exposure
# H. bacteriophora = assay: as above; assay type: cell-based; conditions: Heterorhabditis bacteriophora; reversible paralysis, 24 h exposure
# H. sonorensis = assay: as above; assay type: cell-based; conditions: Heterorhabditis sonorensis; reversible paralysis, 24 h exposure
# Meloidogyne incognita J2 = assay: Recovery from indole-induced temporary paralysis after rinsing with water; assay type: cell-based
# [6] = system: HFF cells (human foreskin cells); assay: MTT cytotoxicity assay; assay type: cell-based; conditions: tested at 50, 100, 200 μM, data not shown
# Protocol: (§6) The non-cancerous HFF cells (human foreskin cells) and three human cancer cell lines, NCI-H460 (non-small cell lung cancer), SF-268 (central nervous system glioma), and MCF-7 (breast cancer) were used to evaluate the in vitro cytotoxicity of the isolated Photorhabdus SMs. The MTT (3-(4,5-dimethylthiazol-2-yl)-2,5-diphenyltetrazolium bromide) colorimetric method ([54]) was used with doxorubicin as the positive control, and DMSO as the negative control. Photorhabdus SMs were tested at 50, 100, and 200 μM concentrations, and the assays were repeated three times.
# MCF-7 (breast cancer) = assay: MTT cytotoxicity assay; assay type: cell-based, human; conditions: tested at 50, 100, 200 μM, data not shown
# Protocol: as §6
# [7] = system: NCI-H460 (non-small cell lung cancer); assay: MTT cytotoxicity assay; assay type: cell-based, human; conditions: tested at 50, 100, 200 μM, data not shown
# Protocol: as §6
# [8] = system: SF-268 (central nervous system glioma); assay: MTT cytotoxicity assay; assay type: cell-based, human; conditions: tested at 50, 100, 200 μM, data not shown
# Protocol: as §6
compound,measurement,setting,value
"c1ccc2[nH]ccc2c1 [Indole, indole]",LC50,[1],307 µg/mL
same,LC50,[2],388 µg/mL
same,Concentrations showing nematicidal activity,C. elegans [3],≥ 300 µg/mL
same,Concentrations showing nematicidal activity,R. blumi,≥ 300 µg/mL
same,Reduction of EC50 for T. semipenetrans versus M. incognita,[4]; 24 h of exposure,34%
same,Increase of EC50 at 72 h compared with 24 h,[4]; T. semipenetrans,84%
same,Increase of EC90 at 72 h compared with 24 h,[4]; T. semipenetrans,79%
same,EC50,"[4]; Tylenchulus semipenetrans, 24 h, 24 h exposure, read-out: EC50",37 µg/mL
same,EC50,"[4]; Tylenchulus semipenetrans, 48 h, 48 h exposure, read-out: EC50",66.2 µg/mL
same,EC50,"[4]; Tylenchulus semipenetrans, 72 h, 72 h exposure, read-out: EC50",68.3 µg/mL
same,EC90,"[4]; Tylenchulus semipenetrans, 24 h exposure",64.2 µg/mL
same,EC90,"[4]; Tylenchulus semipenetrans, 48 h exposure",108 µg/mL
same,EC90,"[4]; Tylenchulus semipenetrans, 72 h exposure",115 µg/mL
same,EC10,[4]; 24 h exposure,"21.4 (12.8, 27.9) μg/mL"
same,EC25,[4]; 24 h exposure,"27.8 (18.9, 34.2) μg/mL"
same,EC50,[4]; 24 h exposure,37.1 µg/mL
same,EC10,[4]; 48 h exposure,"40.6 (8.18, 57.5) μg/mL"
same,EC25,[4]; 48 h exposure,"51.2 (16.1, 67.0) μg/mL"
same,EC10,[4]; 72 h exposure,"40.5 (13.1, 55.8) μg/mL"
same,EC25,[4]; 72 h exposure,"51.9 (23.3, 66.0) μg/mL"
same,EC50,C. elegans [5],159 µg/mL
same,EC50,H. bacteriophora,> 400 µg/mL
same,EC50,H. sonorensis,> 400 µg/mL
same,Recovery after 24 h in water,"Meloidogyne incognita J2; 60 μg/mL, 24-h exposure to treatment",95.9%
same,Recovery after 24 h in water,"Meloidogyne incognita J2; 60 μg/mL, 72-h exposure to treatment",95.5%
same,Recovery after 24 h in water,"Meloidogyne incognita J2; 80 μg/mL, 24-h exposure to treatment",94.9%
same,Recovery after 24 h in water,"Meloidogyne incognita J2; 80 μg/mL, 72-h exposure to treatment",92.8%
same,M. incognita regaining baseline mobility during a recovery period of 24 h,Meloidogyne incognita J2; regardless of length of prior exposure (24 h to 72 h),over 90%
same,In vitro cytotoxicity: none even at the highest concentration tested,[6],> 200 µM
same,In vitro cytotoxicity: none even at the highest concentration tested,MCF-7 (breast cancer),> 200 µM
same,In vitro cytotoxicity: none even at the highest concentration tested,[7],> 200 µM
same,In vitro cytotoxicity: none even at the highest concentration tested,[8],> 200 µM
